# Measured values as given in US20080014256A1 (priority 2005, published 2008).
# Values joined by “and” are separate entries in the source; they are usually repeats but may differ in a detail not shown here. Equal values may be shown once. Read-outs that look alike come from different tables or passages of the source. Marks after values point to notes of the source that are not given here.
# Columns and labels:
# [1] = system: cell monolayer; settings: pH 6
# [2] = Pharmacokinetics of tigecycline after single oral (gavage) and intravenous dose in 0.9% saline
# [3] = cynomolgus monkey, in vivo, 15 mg/kg
substance,measurement,setting,value
Tigecycline,cell monolayer permeability,[1],0.4 nm/s
same,AUC0-4,"[2]; 5 mg/kg iv, animals 1-4 and Mean",20.178 µg·h/mL
same,Cmax,"[2]; 15 mg/kg oral (gavage), 0.9% saline, animals 1-4 and Mean",0.131 µg/mL and 0.191 µg/mL and 0.178 µg/mL
same,AUC0-t,"[2]; 15 mg/kg oral (gavage), t = 2 hr (animals 1, 2, 4) or t = 1 hr (animal 3), individual and Mean",105^c ng · hr/mL
same,AUC0-t or 0-∞,[3],18267
same,AUC0-t or 0-∞,[3]; po,163
